For one molecule, Ep/2 results are on record in patent US20240424148A1, “IN-VIVO PROXIMITY-BASED LABELING SYSTEMS AND APPLICATIONS THEREOF” (THE TRUSTEES OF PRINCETON UNIVERSITY, priority 2021, published 2024).

The nature of this data set: Redox potentials (electrochemistry). In kind it is physicochemical. An excerpt: This reduced species is poised to undergo single electron transfer (SET) to the aryl azide, 1 (Ep/2=−0.61 V vs Ag/AgCl), thereby regenerating the catalyst (3) (FIG. 15).
Furthermore, electrochemical reduction of the Sn-chlorin e6 catalyst generated a species with significant spectral overlap with the transient-absorption signal of the photoexcited catalyst in the presence of NADH, supporting the generation of the reduced ground state catalyst.

On to `[N-]=[N+]=Nc1ccc(C(=O)O)cc1` [compound 1, 4-azidobenzoic acid], for which the Ep/2 was −0.61 V vs Ag/AgCl.
